Biological target: T1, HTR6 (Homo sapiens, UniProt P50406)
T1 construct: purchased Promega (in-house HiBiT-GPCR construct library, NanoBRET)
Assay: NanoBRET screen HiBiT-HTR6 in HEK293
Format: binding
Method: Each tracer candidate was screened across the entire library of HiBiT-GPCR constructs using NanoBRET as the detection modality. As depicted in Figure 4A, the specificity of interactions was evaluated through decrease in BRET due to competitive displacement of a bound tracer by excess parental compound. Each tracer was analyzed for binding to each HiBiT-GPCR fusion in the absence and in the presence of competing parental compound. Briefly, HEK293 cells were transfected with HiBiT-GPCR constructs diluted into promoterless DNA to reduce expression and maximize translocation to the cell surface. Each tracer candidate was then screened at concentrations of 1 μM and 0.1 μM across cells expressing these fusions. Cells were treated for 1.5 h with tracer either alone or in the presence of 20 μM competing parental compound (i.e., control). BRET was measured upon addition of purified LgBiT and subsequent complementation with HiBiT genetically fused to a GPCR. The specificity of interactions was assessed through a decrease in BRET signal due to competitive displacement of the bound tracer. To further gauge the robustness of these interactions, the fold response over the control (i.e., BRETtracer/BRETcontrol) was calculated. We chose a 1.5-fold response, which translates to ≥7-fold signal over noise as the minimal threshold required to score an interaction as positive.
HiBiT-GPCR DNA constructs were diluted in 10 mM Tris pH 8 to a final concentration of 0.01 μg/μL, arrayed in 96-well plates and stored at −20 °C. For transfection, HEK293 cells were suspended in Opti-MEM (without phenol red) supplemented with 2% fetal bovine serum (Seradigm) and 100 units/mL penicillin–streptomycin (Gibco) at a final concentration of 220,000 cells/mL and dispensed into white 96-well plates at 90 μL/well. Subsequent transfections and screens were carried using an Agilent Bravo Automated Liquid Handling Platform. First, the 96-well HiBiT DNA arrays were diluted 25-fold in Opti-MEM (without serum or phenol red) to a final concentration of 0.0004 μg/μL and 20 μL of the diluted DNAs were transferred into new 96-well plates. Next, promoterless carrier DNA (1 μg/μL) was diluted 25-fold (0.04 μg/μL) and then dispensed into the diluted arrays at 20 μL/well. Following brief mixing, Viafect transfection reagent (Promega) diluted 16-fold into Opti-MEM was dispensed into the plates at 40 μL/well. After mixing by pipetting, plates were incubated for 10 min on the pipetting station deck. The DNA-transfection reagent complexes were then added to plates containing cells. To facilitate the screen, 10 μL of DNA-transfection reagent complexes were added in duplicates to the top 4 and bottom 4 rows, resulting in two identical 48-well arrays per plate. Plates with transfected cells were incubated for 18–20 h at 37 °C/5% CO2. A screen of each tracer across the entire library using two different concentrations requires duplicate plates of transfected cells. Depending on the number of tracers being screened, transfections can be scaled up using the same ratios. The next day, for each tracer, four 20× screening solutions in tracer dilution buffer (Promega) were prepared: two duplicates at final concentration of 20 μM and two duplicates at a final concentration of 2 μM. […] The four resulting solutions were diluted 4-fold in Opti-MEM without serum or phenol red to generate 5× solutions (5 µM and 0.5 µM tracer +/− 100 μM competing compound). To screen the library, a BioTek MultiFlo FX liquid dispenser was used to dispense 22.5 µL of tracer solution to the top 4 rows and 22.5 µL tracer + competing compound solution to the 4 bottom rows. Plates were briefly mixed on an orbital shaker and incubated for 1.5 h at room temperature. […] Plates were briefly mixed on an orbital shaker and incubated for 15 min to allow complementation.

T1 sequence (P50406 whole entry): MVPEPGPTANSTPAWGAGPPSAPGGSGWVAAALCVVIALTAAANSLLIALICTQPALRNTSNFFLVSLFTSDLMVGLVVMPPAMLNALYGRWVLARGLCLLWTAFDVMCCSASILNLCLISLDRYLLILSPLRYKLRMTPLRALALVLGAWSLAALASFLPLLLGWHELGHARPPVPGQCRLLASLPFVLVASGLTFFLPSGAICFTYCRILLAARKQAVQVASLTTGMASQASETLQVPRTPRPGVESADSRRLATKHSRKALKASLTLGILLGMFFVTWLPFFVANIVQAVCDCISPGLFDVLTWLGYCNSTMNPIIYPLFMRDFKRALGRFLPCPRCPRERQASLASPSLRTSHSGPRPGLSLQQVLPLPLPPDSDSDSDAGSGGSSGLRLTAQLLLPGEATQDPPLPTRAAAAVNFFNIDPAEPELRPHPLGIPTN

Row | Structure (SMILES) | NanoBRET Fold Response (HTR6, tracer 0.1μM) | NanoBRET Fold Response (HTR6, tracer 1μM) | also measured
1 | CCOC(=O)c1cc(C#N)c(N2CCC(C(=O)NS(=O)(=O)Cc3ccccc3/C=C/C(=O)NCCNC(=O)CCc3ccc4n3[B-](F)(F)[N+]3=C(c5ccc[nH]5)C=CC3=C4)CC2)nc1C [AZD1283-1-NB590] | – | – | NanoBRET Fold Response (HTR6, 0.1μM): 1.05; NanoBRET Fold Response (HTR6, 1μM): 1.07
2 | N#CN/C(=N\CCNC(=O)c1ccc(N)cc1)NCCCOc1cccc(CN2CCCCC2)c1 [Aminopotentidine (unmodified)] | – | – | NanoBRET Fold Response (HTR6, other tracers/Aminopotentidine (unmodified), 0.1μM): 1.03; NanoBRET Fold Response (HTR6, other tracers/Aminopotentidine (unmodified), 1μM): 1.38
3 | N#CN=C(NCCCOc1cccc(CN2CCCCC2)c1)NCCNC(=O)CCOCCOCCOCCOCCNC(=O)CCc1ccc2n1[B-](F)(F)[N+]1=C(c3ccc[nH]3)C=CC1=C2 [Aminopotentidine-2-NB590] | 0.99 | 1.03 | –
4 | CN(C)CCC=C1c2ccccc2CCc2ccc(C(=O)NCCNC(=O)CCOCCOCCOCCOCCNC(=O)CCc3ccc4n3[B-](F)(F)[N+]3=C(c5ccc[nH]5)C=CC3=C4)cc21 [Amitriptyline-a-2-NB590] | – | – | NanoBRET Fold Response (tracer at 0.1μM): 0.98; NanoBRET Fold Response (tracer at 1μM): 0.97
5 | CN(C)CCC=C1c2ccccc2CCc2ccc(C(=O)NCCNC(=O)CCOCCOCCOCCOCCNC(=O)CCc3ccc4n3[B-](F)(F)[N+]3=C(c5ccc[nH]5)C=CC3=C4)cc21 [Amitriptyline-b-2-NB590] | – | – | NanoBRET Fold Response (tracer at 0.1μM, listed as amitriptyline-b-2-NB590): 1.11; NanoBRET Fold Response (tracer at 1μM, listed as amitriptyline-b-2-NB590): 1.11
6 | CN(CCC=C1c2ccccc2CCc2ccccc21)C(=O)CCOCCOCCOCCOCCNC(=O)CCc1ccc2n1[B-](F)(F)[N+]1=C(c3ccc[nH]3)C=CC1=C2 [Amitriptyline-e-2-NB590] | – | – | NanoBRET Fold Response (tracer at 1μM): 1.01
7 | COc1ccc2c(n1)c(CCNC(C)=O)cn2CCNC(=O)CCc1ccc2n1[B-](F)(F)[N+]1=C(c3ccc[nH]3)C=CC1=C2 [Azamelatonin-1-NB590] | – | – | NanoBRET Fold Response (0.1μM tracer): 0.87; NanoBRET Fold Response (1μM tracer): 0.87
8 | COc1ccc2[nH]c(-c3ccc(CNC(=O)CCOCCOCCOCCOCCNC(=O)CCc4ccc5n4[B-](F)(F)[N+]4=C(c6ccc[nH]6)C=CC4=C5)cc3)c(CCNC(C)=O)c2n1 [AzomelatoninICO9-2-NB590] | – | – | NanoBRET Fold Response (0.1μM tracer): 0.97; NanoBRET Fold Response (1μM tracer): 0.95
9 | O=C(CCOCCOCCOCCOCCNC(=O)CCc1ccc2n1[B-](F)(F)[N+]1=C(c3ccc[nH]3)C=CC1=C2)NCCCN1CCN(C2=Nc3cc(Cl)ccc3Nc3ccccc32)CC1 [Clozapine-a-2-NB590] | – | – | NanoBRET Fold Response (HTR6, 0.1μM tracer): 1.49; NanoBRET Fold Response (HTR6, 1μM tracer): 2.05
10 | O=C(CCOCCOCCOCCOCCNC(=O)CCc1ccc2n1[B-](F)(F)[N+]1=C(c3ccc[nH]3)C=CC1=C2)NCCCN1CCN(C2=Nc3ccccc3Oc3ccc(Cl)cc32)CC1 [Loxapine-a-2-NB590] | 1.04 | 1.21 | –
11 | COc1ccccc1N1CCN(CCCCN2C(=O)c3ccc(CNC(=O)CCOCCOCCOCCOCCNC(=O)CCc4ccc5n4[B-](F)(F)[N+]4=C(c6ccc[nH]6)C=CC4=C5)cc3C2=O)CC1 [NAN-190-2-NB590] | 0.99 | 1.04 | –
12 | COc1ccccc1N1CCN(CCCCN2C(=O)c3ccc(CNC(=O)CCOCCNC(=O)c4ccc(CNC(=O)CCc5ccc6n5[B-](F)(F)[N+]5=C(c7ccc[nH]7)C=CC5=C6)cc4)cc3C2=O)CC1 [NAN-190-3-NB590] | 0.94 | 1.19 | –
13 | O=C(CCc1ccc2n1[B-](F)(F)[N+]1=C(c3ccc[nH]3)C=CC1=C2)NCc1ccc(C(=O)NCCOCCC(=O)N[C@@H]2CC[C@@]3(O)[C@H]4Cc5ccc(O)c6c5[C@@]3(CCN4CC3CC3)[C@H]2O6)cc1 [Naltrexone-3-NB590] | 0.77 | 0.95 | –
14 | Cc1cc2c(s1)Nc1ccccc1N=C2N1CCN(CCCNC(=O)CCOCCOCCOCCOCCNC(=O)CCc2ccc3n2[B-](F)(F)[N+]2=C(c4ccc[nH]4)C=CC2=C3)CC1 [Olanzapine-a-2-NB590] | 1.09 | 1.15 | –
15 | O=C(CCc1ccc2n1[B-](F)(F)[N+]1=C(c3ccc[nH]3)C=CC1=C2)NCc1ccc(C(=O)NCCOCCOCCNCC(O)COc2cccc3ccccc23)cc1 (stereo not drawn) [Propranolol-3-NB590] | – | – | NanoBRET Fold Response (HTR6, 0.1μM): 1.10; NanoBRET Fold Response (HTR6, 1μM): 1.14
16 | O=C(CCc1ccc2n1[B-](F)(F)[N+]1=C(c3ccc[nH]3)C=CC1=C2)NCCOCCOCCNC(=O)OCCOCCN1CCN(C2=Nc3ccccc3Sc3ccccc32)CC1 [Quetiapine-a-2-NB590] | 0.90 | 0.98 | –
17 | Cc1nc2n(c(=O)c1CCN1CCC(c3noc4cc(F)ccc34)CC1)CCCC2OC(=O)NCCOCCOCCOCCOCCNC(=O)CCc1ccc2n1[B-](F)(F)[N+]1=C(c3ccc[nH]3)C=CC1=C2 (stereo not drawn) [Risperidone-2-NB590] | 1.00 | 1.34 | –
18 | CC(C)N(CC[C@H](c1ccccc1)c1cc(CCNC(=O)CCOCCOCCOCCOCCNC(=O)CCc2ccc3n2[B-](F)(F)[N+]2=C(c4ccc[nH]4)C=CC2=C3)ccc1O)C(C)C [Tolterodine-2-NB590] | 0.89 | 0.96 | –
19 | CC(C)N(CC[C@H](c1ccccc1)c1cc(CCNC(=O)c2ccc(CNC(=O)CCc3ccc4n3[B-](F)(F)[N+]3=C(c5ccc[nH]5)C=CC3=C4)cc2)ccc1O)C(C)C [Tolterodine-BZ-NB590] | 0.96 | 1.05 | –
20 | CCCn1c(=O)c2[nH]c(-c3ccc(OCC(=O)NCCNC(=O)CCOCCNC(=O)c4ccc(CNC(=O)CCc5ccc6n5[B-](F)(F)[N+]5=C(c7ccc[nH]7)C=CC5=C6)cc4)cc3)nc2n(CCC)c1=O [XAC-3-NB590] | 0.97 | 0.93 | –

Reference: paper PMC8151276, “An Integrated Approach toward NanoBRET Tracers for Analysis of GPCR Ligand Engagement” (Molecules, 2021)
